From US11739098B2 (BRISTOL-MYERS SQUIBB COMPANY, priority 2017, dated 2023) come the findings set out here.

Where only a bound is given, the exact number is not on record here.

The term IC50 denotes the concentration at which inhibition is half-maximal. Higher therefore signals weaker potency in that assay.

Common to all, as to assay type: cell-based
One experiment addresses T1, human TLR9 (Homo sapiens, UniProt Q9NR96).
T1 construct: host or cells: HEK-Blue cells (HEK293-derived reporter line)
T1 sequence (Q9NR96 26-1032): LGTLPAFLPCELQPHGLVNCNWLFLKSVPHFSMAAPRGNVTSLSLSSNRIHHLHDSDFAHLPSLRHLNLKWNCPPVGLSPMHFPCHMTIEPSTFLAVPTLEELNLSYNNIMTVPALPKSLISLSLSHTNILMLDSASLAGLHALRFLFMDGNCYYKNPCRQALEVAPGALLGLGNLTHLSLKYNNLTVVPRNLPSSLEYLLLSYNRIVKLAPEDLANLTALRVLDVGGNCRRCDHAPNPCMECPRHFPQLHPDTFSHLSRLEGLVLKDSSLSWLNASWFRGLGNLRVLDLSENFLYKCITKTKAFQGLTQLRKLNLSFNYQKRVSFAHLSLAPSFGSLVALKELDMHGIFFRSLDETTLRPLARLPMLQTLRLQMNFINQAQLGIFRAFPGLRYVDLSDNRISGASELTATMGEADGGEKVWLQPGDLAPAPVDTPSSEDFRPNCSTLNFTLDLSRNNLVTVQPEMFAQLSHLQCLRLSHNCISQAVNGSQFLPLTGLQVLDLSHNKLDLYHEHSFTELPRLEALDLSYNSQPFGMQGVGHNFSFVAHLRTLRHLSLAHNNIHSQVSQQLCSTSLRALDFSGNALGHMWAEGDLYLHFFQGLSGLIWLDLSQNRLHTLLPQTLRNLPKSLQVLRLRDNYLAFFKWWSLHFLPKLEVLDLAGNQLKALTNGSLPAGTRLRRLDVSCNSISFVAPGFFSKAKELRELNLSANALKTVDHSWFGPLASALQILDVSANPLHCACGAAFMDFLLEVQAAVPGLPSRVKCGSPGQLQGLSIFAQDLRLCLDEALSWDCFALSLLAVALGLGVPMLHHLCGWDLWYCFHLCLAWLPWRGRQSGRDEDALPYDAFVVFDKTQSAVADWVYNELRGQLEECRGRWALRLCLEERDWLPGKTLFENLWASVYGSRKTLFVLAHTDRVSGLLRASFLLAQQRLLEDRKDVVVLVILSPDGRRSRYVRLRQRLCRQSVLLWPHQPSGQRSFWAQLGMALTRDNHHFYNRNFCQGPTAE
Briefly: TLR9 inhibition reporter assay (HEK-Blue cells, SEAP reporter, ODN2006 stimulation). The following applies: HEK-Blue cells overexpressing human TLR9, SEAP reporter, ODN2006 5 nM. The method, boiled down: (§1)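 Percent inhibition of agonist-induced SEAP secretion in HEK-Blue cells after 22 h at 37 °C. Stimuli: 7.5 μM gardiquimod, 15.9 μM R848, 5 nM ODN2006 for TLR7, TLR8 and TLR9, added after 30 min compound exposure over a 0.05 nM–50 μM range.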
For orientation: A reporter such as luciferase makes a cellular process visible.

The target of a further experiment is T2, human TLR8 (Homo sapiens, UniProt Q9NR97).
T2 construct: host or cells: HEK-Blue cells (HEK293-derived reporter line)
T2 sequence (Q9NR97 27-1041): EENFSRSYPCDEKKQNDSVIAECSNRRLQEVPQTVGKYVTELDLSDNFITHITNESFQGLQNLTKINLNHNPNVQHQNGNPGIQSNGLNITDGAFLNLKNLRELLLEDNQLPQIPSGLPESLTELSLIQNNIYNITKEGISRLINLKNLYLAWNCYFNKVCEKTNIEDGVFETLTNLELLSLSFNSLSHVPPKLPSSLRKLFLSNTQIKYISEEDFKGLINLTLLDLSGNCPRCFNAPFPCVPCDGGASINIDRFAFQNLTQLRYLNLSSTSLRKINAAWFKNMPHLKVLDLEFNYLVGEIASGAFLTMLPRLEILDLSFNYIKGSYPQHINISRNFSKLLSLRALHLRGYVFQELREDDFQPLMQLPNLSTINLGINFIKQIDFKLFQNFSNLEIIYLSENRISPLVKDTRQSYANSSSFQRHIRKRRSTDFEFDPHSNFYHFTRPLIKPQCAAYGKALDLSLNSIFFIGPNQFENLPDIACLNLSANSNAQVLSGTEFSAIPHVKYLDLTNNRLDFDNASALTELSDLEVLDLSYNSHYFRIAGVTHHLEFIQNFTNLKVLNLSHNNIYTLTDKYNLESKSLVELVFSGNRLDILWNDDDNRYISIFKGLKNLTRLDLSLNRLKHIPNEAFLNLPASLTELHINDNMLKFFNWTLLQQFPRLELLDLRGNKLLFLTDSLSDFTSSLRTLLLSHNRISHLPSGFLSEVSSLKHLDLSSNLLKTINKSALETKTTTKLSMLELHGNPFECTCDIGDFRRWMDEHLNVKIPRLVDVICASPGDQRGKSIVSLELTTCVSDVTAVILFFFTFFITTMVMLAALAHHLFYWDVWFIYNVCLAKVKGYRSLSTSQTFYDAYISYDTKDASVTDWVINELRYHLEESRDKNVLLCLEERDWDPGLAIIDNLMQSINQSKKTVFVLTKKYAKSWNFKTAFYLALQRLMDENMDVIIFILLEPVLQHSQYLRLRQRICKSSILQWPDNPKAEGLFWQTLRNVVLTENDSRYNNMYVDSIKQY
Briefly: TLR8 inhibition reporter assay (HEK-Blue cells, SEAP reporter, R848 stimulation). The following applies: HEK-Blue cells overexpressing human TLR8, SEAP reporter, R848 15.9 μM. The method, boiled down:
as §1

The target of a further experiment is T3, human TLR7 (Homo sapiens, UniProt Q9NYK1).
T3 construct: host or cells: HEK-Blue cells (HEK293-derived reporter line)
T3 sequence (Q9NYK1 27-1049): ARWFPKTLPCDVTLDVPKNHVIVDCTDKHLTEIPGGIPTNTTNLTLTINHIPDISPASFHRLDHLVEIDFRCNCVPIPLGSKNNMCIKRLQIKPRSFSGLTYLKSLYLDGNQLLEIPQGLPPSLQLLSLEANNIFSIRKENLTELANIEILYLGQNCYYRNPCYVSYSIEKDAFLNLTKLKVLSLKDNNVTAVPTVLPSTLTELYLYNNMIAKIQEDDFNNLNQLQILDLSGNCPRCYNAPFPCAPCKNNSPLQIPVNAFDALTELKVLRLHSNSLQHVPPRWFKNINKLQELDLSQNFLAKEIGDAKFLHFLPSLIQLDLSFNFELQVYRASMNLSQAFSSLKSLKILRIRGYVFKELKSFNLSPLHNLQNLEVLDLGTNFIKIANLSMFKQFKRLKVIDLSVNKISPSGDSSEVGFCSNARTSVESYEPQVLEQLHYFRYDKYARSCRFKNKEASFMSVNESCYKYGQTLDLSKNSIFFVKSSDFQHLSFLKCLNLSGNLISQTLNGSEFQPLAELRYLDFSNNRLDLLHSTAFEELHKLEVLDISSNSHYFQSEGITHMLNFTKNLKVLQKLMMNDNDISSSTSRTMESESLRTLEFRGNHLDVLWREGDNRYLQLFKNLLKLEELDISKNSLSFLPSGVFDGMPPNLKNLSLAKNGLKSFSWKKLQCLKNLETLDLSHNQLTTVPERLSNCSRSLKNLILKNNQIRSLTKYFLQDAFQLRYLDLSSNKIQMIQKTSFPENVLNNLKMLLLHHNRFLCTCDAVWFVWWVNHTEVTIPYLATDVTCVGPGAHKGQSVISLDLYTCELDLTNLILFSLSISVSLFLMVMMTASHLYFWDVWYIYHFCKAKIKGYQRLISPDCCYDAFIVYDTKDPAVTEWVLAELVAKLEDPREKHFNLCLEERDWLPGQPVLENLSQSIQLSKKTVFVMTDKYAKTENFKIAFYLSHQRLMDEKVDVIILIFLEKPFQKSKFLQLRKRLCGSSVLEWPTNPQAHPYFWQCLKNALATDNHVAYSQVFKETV
Briefly: TLR7 inhibition reporter assay (HEK-Blue cells, SEAP reporter, gardiquimod stimulation). The conditions noted are these: HEK-Blue cells overexpressing human TLR7, SEAP reporter, gardiquimod 7.5 μM. An outline of the steps:
as §1

For `Cc1c(-c2ccnc3[nH]cc(C)c23)[nH]c2ccc(C3CCNCC3)cc12` [Example 4, 3-methyl-4-(3-methyl-5-(piperidin-4-yl)-1H-indol-2-yl)-1H-pyrrolo[2,3-b]pyridine], the IC50 against human TLR9, at human TLR8 and on human TLR7 was 100 to 1000 nM each time.
Regarding `CC(C)c1c(-c2ccc(C#N)c3ncccc23)[nH]c2ccc(C3CCN(C(=O)CN(C)C)CC3)cc12` [Example 506, 5-(5-(1-(dimethylglycyl)piperidin-4-yl)-3-isopropyl-1H-indol-2-yl)quinoline-8-carbonitrile], the figures for the IC50 against human TLR9, on human TLR8 and on human TLR7 were 1000 to 50000 nM, less than 100 nM and less than 100 nM, respectively.
On to `Cc1c(-c2ccnc3[nH]ccc23)[nH]c2ccc(C3CCNCC3)cc12` [Example 2, 4-(3-methyl-5-(piperidin-4-yl)-1H-indol-2-yl)-1H-pyrrolo[2,3-b]pyridine], for which the IC50 at human TLR9 is 1000 to 50000 nM; at human TLR8, less than 100 nM; on human TLR7, less than 100 nM.
In the case of `COc1cc(-c2[nH]c3ccc(C4CCNCC4)cc3c2C(C)C)cc2nc(C)cn12` [Example 162, 7-(3-isopropyl-5-(piperidin-4-yl)-1H-indol-2-yl)-5-methoxy-2-methylimidazo[1,2-a]pyridine], the IC50 was 100 to 1000 nM on human TLR9, 100 to 1000 nM on human TLR8 and less than 100 nM against human TLR7.
As to `COc1cc(-c2[nH]c3ccc(C4CCN(CC(C)(C)O)CC4)cc3c2C(C)C)cc2nccn12` [Example 758, 1-(4-(3-isopropyl-2-(5-methoxyimidazo[1,2-a]pyridin-7-yl)-1H-indol-5-yl)piperidin-1-yl)-2-methylpropan-2-ol], the figures for the IC50 against human TLR9, at human TLR8 and at human TLR7 were 100 to 1000 nM, less than 100 nM and 100 to 1000 nM, respectively.
`Cc1nnn2ccc(-c3[nH]c4ccc(C5CCN(C(=O)CN(C)C)CC5)cc4c3C(C)C)cc12` [Example 487, 2-(dimethylamino)-1-(4-(3-isopropyl-2-(3-methyl-[1,2,3]triazolo[1,5-a]pyridin-5-yl)-1H-indol-5-yl)piperidin-1-yl)ethan-1-one]: the IC50 against human TLR9 is 1000 to 50000 nM; at human TLR8, less than 100 nM; at human TLR7, less than 100 nM.
`Cc1cc(-c2[nH]c3ccc(C4CCN(C(=O)CN5C[C@H]6CC[C@@H](C5)O6)CC4)cc3c2C(C)C)cn2nnnc12` [Example 484, 2-((1R,5S)-8-oxa-3-azabicyclo[3.2.1]octan-3-yl)-1-(4-(3-isopropyl-2-(8-methyltetrazolo[1,5-a]pyridin-6-yl)-1H-indol-5-yl)piperidin-1-yl)ethan-1-one]: the IC50 is 1000 to 50000 nM on human TLR9, less than 100 nM at human TLR8 and less than 100 nM at human TLR7.
As for `Cc1cc(-c2[nH]c3ccc(C4CCN(Cc5cnn[nH]5)CC4)cc3c2C(C)C)cn2nnnc12` [Example 883, 6-(5-(1-((1H-1,2,3-triazol-5-yl)methyl)piperidin-4-yl)-3-isopropyl-1H-indol-2-yl)-8-methyltetrazolo[1,5-a]pyridine], the IC50 is 1000 to 50000 nM against human TLR9, less than 100 nM on human TLR8 and less than 100 nM against human TLR7.
With `Cc1cc(-c2[nH]c3ccc(C4CCN(C(=O)CN(C)C)CC4)cc3c2C(C)C)cc2cncn12` [Example 531, 2-(dimethylamino)-1-(4-(3-isopropyl-2-(5-methylimidazo[1,5-a]pyridin-7-yl)-1H-indol-5-yl)piperidin-1-yl)ethan-1-one], the concentration for half-maximal inhibition (IC50) on human TLR9 was 100 to 1000 nM; against human TLR8, less than 100 nM; against human TLR7, less than 100 nM.
On to `Cc1cc(-c2[nH]c3ccc(C4CCN(C5CCS(=O)(=O)CC5)CC4)cc3c2C(C)C)cc2cccnc12` [Example 800, 4-(4-(3-isopropyl-2-(8-methylquinolin-6-yl)-1H-indol-5-yl)piperidin-1-yl)tetrahydro-2H-thiopyran 1,1-dioxide], for which the IC50 was 1000 to 50000 nM against human TLR9, 100 to 1000 nM against human TLR8 and less than 100 nM against human TLR7.
The matching figures for `Cc1cn2cc(-c3[nH]c4ccc(C5CCNCC5)cc4c3C(C)C)cc(C)c2n1` [Example 120, 6-(3-isopropyl-5-(piperidin-4-yl)-1H-indol-2-yl)-2,8-dimethylimidazo[1,2-a]pyridine]: 100 to 1000 nM, less than 100 nM and less than 100 nM.
With `CC(C)c1c(-c2cc3cn[nH]c3cn2)[nH]c2ccc(C3CCNCC3)cc12` [Example 179, 5-(3-isopropyl-5-(piperidin-4-yl)-1H-indol-2-yl)-1H-pyrazolo[3,4-c]pyridine], the IC50 at human TLR9 is 1000 to 50000 nM; against human TLR8, less than 100 nM; on human TLR7 it was less than 100 nM.
In the case of `Cc1c(-c2nccc3[nH]cnc23)[nH]c2ccc(C3CCN(C4CCN(C(C)C)CC4)CC3)cc12` [Example 805, 4-(5-(1′-isopropyl-[1,4′-bipiperidin]-4-yl)-3-methyl-1H-indol-2-yl)-1H-imidazo[4,5-c]pyridine], the IC50 at human TLR9 was less than 100 nM; at human TLR8, 1000 to 50000 nM; against human TLR7, 1000 to 50000 nM.
